Assays:
[1] = molecular target: BRAF (Homo sapiens (Human), UniProt P15056); test: Z′-LYTE kinase inhibition assay (Invitrogen), BRAF; type: biochemical; settings: 1 μM compound, Z′-LYTE method; read-out: % inhibition at 1 μM against BRAF
Procedure: Inhibitory activities Inhibitory activities of compounds against BRAF, and BRAF V600E were measured by Invitrogen using Z′-LYTE® Method as briefly described in the following. 4× Test compounds are dissolved in 1% DMSO. […] ATP solutions are diluted to a 4×ATP working concentration in Kinase Buffer (50 mM HEPES pH 7.5, 0.01% BRIJ-35, 10 mM MgCl2, 1 mM EGTA). Reaction started by 30-second shaking of mixture consisting of 2.5 μL 4× test compound, […] and 2.5 μL 4×ATP Solution on Bar-coded Corning, low volume NBS, black 384-well plate (Corning Cat. #3676). Then the mixture was incubated for 60-minute at room temperature for the kinase reaction, followed by addition of 5 μL of a 1:1024 dilution of development reagent A and 30-second plate shake. The mixture was then incubated for another 60-minute at room temperature for development reaction. Fluorescence was read by plate reader. IC50 was calculated by plotting the concentration of compound vs the percentage of inhibition in treated wells using GraphPad Prism 5.

[2] = molecular target: BRAF V600E (Homo sapiens (Human), UniProt P15056, V600E); test: Z′-LYTE kinase inhibition assay (Invitrogen), BRAF V600E; type: biochemical; settings: Z′-LYTE method; for inhibition at 1 µM: 1 μM compound, read-out: % inhibition at 1 μM against BRAF V600E; for IC50: read-out: IC50 against BRAF V600E
Summary of the method: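 FRET-based Z′-LYTE peptide phosphorylation format in 50 mM HEPES pH 7.5, 0.01% BRIJ-35, 10 mM MgCl2, 1 mM EGTA with ATP. Kinase reaction 60 min at room temperature, then protease development step 60 min at room temperature before fluorescence read. IC50 from compound concentration versus percent inhibition.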

[3] = molecular target: KDR (VEGFR2) (Homo sapiens (Human), UniProt P35968); test: Z′-LYTE kinase inhibition assay (Invitrogen), KDR; type: biochemical; settings: Z′-LYTE method; for inhibition at 1 µM: 1 μM compound, read-out: % inhibition at 1 μM against KDR; for IC50: read-out: IC50 against KDR
Summary of the method: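 Z′-LYTE FRET assay: 10 μL reactions with 0.5–11.7 ng KDR and 2 μM Tyr 01 peptide in 50 mM HEPES pH 7.5, 10 mM MgCl2, 1 mM EGTA, 0.01% BRIJ-35, 1 h at room temperature. Development Reagent B (1:256) added for 60 min, fluorescence read; IC50 from concentration–inhibition curves.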

[4] = system: A375 cells; test: Inhibition of cancer cell growth, MTT assay, A375; type: cell-based; settings: Homo sapiens, A-375, 72 h exposure
Summary of the method: (§1)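 Cells grown in RPMI 1640 with 10% FBS were seeded at about 4000 cells/well, left 24 h, then exposed to compound for 72 h (1% DMSO final). MTT absorbance at 570 nm was compared with viable cells at time of addition to give growth inhibition; IC50 from concentration–inhibition plots, triplicates.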

[5] = system: A549 cells; test: Inhibition of cancer cell growth, MTT assay, A549; type: cell-based; settings: Homo sapiens, A549, 72 h exposure
Summary of the method: as §1

Sequence of BRAF V600E (P15056 whole entry V600E): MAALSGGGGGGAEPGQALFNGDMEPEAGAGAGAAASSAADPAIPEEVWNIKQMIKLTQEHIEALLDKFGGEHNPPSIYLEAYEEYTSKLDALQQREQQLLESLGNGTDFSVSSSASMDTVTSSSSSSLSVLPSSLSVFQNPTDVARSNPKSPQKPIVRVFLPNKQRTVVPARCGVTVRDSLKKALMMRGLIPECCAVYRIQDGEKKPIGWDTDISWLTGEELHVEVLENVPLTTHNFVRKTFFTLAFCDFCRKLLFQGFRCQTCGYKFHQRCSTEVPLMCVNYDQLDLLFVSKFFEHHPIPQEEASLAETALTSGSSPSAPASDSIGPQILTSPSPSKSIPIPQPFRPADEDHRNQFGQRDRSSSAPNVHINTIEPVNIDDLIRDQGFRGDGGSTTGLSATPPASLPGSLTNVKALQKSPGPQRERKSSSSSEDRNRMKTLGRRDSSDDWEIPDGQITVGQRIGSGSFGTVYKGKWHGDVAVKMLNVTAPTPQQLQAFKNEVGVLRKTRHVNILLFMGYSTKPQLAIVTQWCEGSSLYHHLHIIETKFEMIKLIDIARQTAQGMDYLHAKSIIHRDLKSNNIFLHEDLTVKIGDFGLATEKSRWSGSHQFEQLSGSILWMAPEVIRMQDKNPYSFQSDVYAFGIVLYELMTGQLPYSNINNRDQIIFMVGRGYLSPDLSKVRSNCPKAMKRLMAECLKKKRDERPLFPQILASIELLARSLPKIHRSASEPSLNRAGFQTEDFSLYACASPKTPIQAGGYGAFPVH
Sequence of KDR (VEGFR2) (P35968 20-1356): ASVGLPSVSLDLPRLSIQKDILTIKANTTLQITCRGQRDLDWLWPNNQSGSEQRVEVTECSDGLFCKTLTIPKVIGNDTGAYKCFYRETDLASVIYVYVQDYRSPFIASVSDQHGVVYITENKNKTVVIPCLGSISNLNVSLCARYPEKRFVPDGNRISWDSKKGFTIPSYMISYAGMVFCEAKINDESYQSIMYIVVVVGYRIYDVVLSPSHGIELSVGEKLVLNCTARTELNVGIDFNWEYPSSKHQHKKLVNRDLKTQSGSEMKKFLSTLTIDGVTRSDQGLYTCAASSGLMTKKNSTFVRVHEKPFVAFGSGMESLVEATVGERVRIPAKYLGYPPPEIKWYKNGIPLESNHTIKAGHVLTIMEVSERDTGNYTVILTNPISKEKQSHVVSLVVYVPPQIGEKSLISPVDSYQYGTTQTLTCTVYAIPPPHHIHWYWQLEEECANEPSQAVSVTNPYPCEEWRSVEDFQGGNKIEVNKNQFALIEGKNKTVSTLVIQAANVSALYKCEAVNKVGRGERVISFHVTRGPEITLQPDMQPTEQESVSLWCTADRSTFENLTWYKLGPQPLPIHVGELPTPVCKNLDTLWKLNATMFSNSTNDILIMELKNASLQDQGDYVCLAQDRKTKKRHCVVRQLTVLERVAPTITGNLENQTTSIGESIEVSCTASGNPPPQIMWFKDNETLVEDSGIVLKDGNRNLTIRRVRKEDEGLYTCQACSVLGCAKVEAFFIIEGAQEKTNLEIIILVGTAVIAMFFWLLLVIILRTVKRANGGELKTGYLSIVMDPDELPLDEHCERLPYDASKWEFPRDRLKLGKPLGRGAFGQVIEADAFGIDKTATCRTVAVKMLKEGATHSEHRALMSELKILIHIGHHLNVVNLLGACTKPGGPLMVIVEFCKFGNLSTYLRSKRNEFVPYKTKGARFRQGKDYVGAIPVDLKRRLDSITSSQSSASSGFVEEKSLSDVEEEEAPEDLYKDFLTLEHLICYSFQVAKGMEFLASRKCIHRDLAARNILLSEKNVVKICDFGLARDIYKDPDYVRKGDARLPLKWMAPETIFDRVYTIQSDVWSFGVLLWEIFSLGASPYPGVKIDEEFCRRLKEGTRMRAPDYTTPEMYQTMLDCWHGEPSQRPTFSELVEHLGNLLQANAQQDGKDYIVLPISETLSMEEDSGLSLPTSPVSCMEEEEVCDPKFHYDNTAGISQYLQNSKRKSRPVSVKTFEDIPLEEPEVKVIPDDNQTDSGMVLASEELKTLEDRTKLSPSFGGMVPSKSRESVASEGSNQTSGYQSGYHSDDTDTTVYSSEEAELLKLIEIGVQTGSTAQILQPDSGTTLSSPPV
Sequence of BRAF (P15056 whole entry): as the sequence (P15056 whole entry V600E) above, with E600V counted along it

| Compound | inhibition at 1 µM [1] | inhibition at 1 µM [2] | inhibition at 1 µM [3] | IC50 [4] | IC50 [5] | IC50 [3] | IC50 [2] |
| --- | --- | --- | --- | --- | --- | --- | --- |
| O=C(Nc1cc(F)c(F)c(C(=O)c2ccc3ncc(N4CCOCC4)nc3c2)c1)Nc1ccc(Cl)c(C(F)(F)F)c1 [Compound C041, 1-(4-chloro-3-(trifluoromethyl)phenyl)-3-(3,4-difluoro-5-(3-morpholinoquinoxaline-6-carbonyl)phenyl)urea] | < 70% | 70 to 89% | 70 to 89% | < 1000 nM | < 2000 nM | – | – |
| O=C(Nc1cccc(C(=O)c2ccc3nccnc3c2)c1)c1ccc(C(F)(F)F)c(Cl)c1 [Compound C107, 3-chloro-N-(3-(quinoxaline-6-carbonyl)phenyl)-4-(trifluoromethyl)benzamide] | < 70% | > 89% | < 70% | 1000 to 5000 nM | > 5000 nM | – | – |
| O=C(Nc1cccc(C(=O)c2ccc3nccnc3c2)c1)c1ccc(Cl)c(C(F)(F)F)c1 [Compound C111, 4-chloro-N-(3-(quinoxaline-6-carbonyl)phenyl)-3-(trifluoromethyl)benzamide] | < 70% | 70 to 89% | < 70% | > 5000 nM | < 2000 nM | – | – |
| O=C(Nc1ccc(Cl)c(C(F)(F)F)c1)Nc1cc(F)c(F)c(C(=O)c2ccc3nccnc3c2)c1F [Compound C007, 1-(4-chloro-3-(trifluoromethyl)phenyl)-3-(2,4,5-trifluoro-3-(quinoxaline-6-carbonyl)phenyl)urea] | < 70% | < 70% | < 70% | 1000 to 5000 nM | 2000 to 5000 nM | – | – |
| COc1cnc2ccc(C(=O)c3cc(NC(=O)Nc4ccc(F)cc4)ccc3F)cc2n1 [Compound C080, 1-(4-fluoro-3-(3-methoxyquinoxaline-6-carbonyl)phenyl)-3-(4-fluorophenyl)urea] | 70 to 89% | > 89% | 70 to 89% | 1000 to 5000 nM | 2000 to 5000 nM | < 100 nM | – |
| O=C(Nc1cc(F)cc(C(=O)c2ccc3ncc(N4CCOCC4)nc3c2)c1)c1cccc(C(F)(F)F)c1 [Compound C143, N-(3-fluoro-5-(3-morpholinoquinoxaline-6-carbonyl)phenyl)-3-(trifluoromethyl)benzamide] | < 70% | > 89% | 70 to 89% | < 1000 nM | 2000 to 5000 nM | < 100 nM | < 100 nM |
| O=C(Nc1cccc(C(F)(F)F)c1)Nc1ccc(F)c(C(=O)c2ccc3nccnc3c2)c1 [Compound C014, 1-(4-fluoro-3-(quinoxaline-6-carbonyl)phenyl)-3-(3-(trifluoromethyl)phenyl)urea] | < 70% | > 89% | 70 to 89% | < 1000 nM | < 2000 nM | < 100 nM | < 100 nM |
| O=C(Nc1cccc(C(=O)c2ccc3ncc(N4CCOCC4)nc3c2)c1)Nc1ccc(Cl)c(C(F)(F)F)c1 [Compound C018, 1-(4-chloro-3-(trifluoromethyl)phenyl)-3-(3-(3-morpholinoquinoxaline-6-carbonyl)phenyl)urea] | 70 to 89% | > 89% | > 89% | < 1000 nM | < 2000 nM | < 100 nM | < 100 nM |
| O=C(Nc1ccc(F)c(C(=O)c2ccc3ncc(N4CCOCC4)nc3c2)c1)Nc1ccc(Cl)c(C(F)(F)F)c1 [Compound C030, 1-(4-chloro-3-(trifluoromethyl)phenyl)-3-(4-fluoro-3-(3-morpholinoquinoxaline-6-carbonyl)phenyl)urea] | < 70% | 70 to 89% | > 89% | < 1000 nM | 2000 to 5000 nM | < 100 nM | > 100 nM |
| O=C(Nc1cccc(C(=O)c2ccc3ncc(N4CCCC4)nc3c2)c1)Nc1cccc(C(F)(F)F)c1 [Compound C020, 1-(3-(3-(pyrrolidin-1-yl)quinoxaline-6-carbonyl)phenyl)-3-(3-(trifluoromethyl)phenyl)urea] | 70 to 89% | > 89% | > 89% | 1000 to 5000 nM | > 5000 nM | – | – |
| O=C(Nc1cccc(C(F)(F)F)c1)Nc1cc(F)c(F)c(C(=O)c2ccc3ncc(N4CCOCC4)nc3c2)c1 [Compound C040, 1-(3,4-difluoro-5-(3-morpholinoquinoxaline-6-carbonyl)phenyl)-3-(3-(trifluoromethyl)phenyl)urea] | < 70% | 70 to 89% | 70 to 89% | < 1000 nM | < 2000 nM | > 100 nM | > 100 nM |
| O=C(Nc1ccc(F)c(C(=O)c2ccc3nccnc3c2)c1)c1cccc(C(F)(F)F)c1 [Compound C116, N-(4-fluoro-3-(quinoxaline-6-carbonyl)phenyl)-3-(trifluoromethyl)benzamide] | 70 to 89% | > 89% | > 89% | < 1000 nM | 2000 to 5000 nM | – | – |
| O=C(Nc1cc(F)c(F)c(C(=O)c2ccc3ncc(N4CCOCC4)nc3c2)c1)c1cccc(F)c1 [Compound C144, N-(3,4-difluoro-5-(3-morpholinoquinoxaline-6-carbonyl)phenyl)-3-fluorobenzamide] | 70 to 89% | > 89% | 70 to 89% | 1000 to 5000 nM | 2000 to 5000 nM | – | – |
| O=C(Nc1cccc(F)c1)Nc1ccc(F)c(C(=O)c2ccc3ncc(N4CCOCC4)nc3c2)c1 [Compound C035, 1-(4-fluoro-3-(3-morpholinoquinoxaline-6-carbonyl)phenyl)-3-(3-fluorophenyl)urea] | 70 to 89% | > 89% | 70 to 89% | < 1000 nM | 2000 to 5000 nM | < 100 nM | < 100 nM |
| O=C(Nc1cccc(F)c1)Nc1cccc(C(=O)c2ccc3nccnc3c2)c1 [Compound C001, 1-(3-fluorophenyl)-3-(3-(quinoxaline-6-carbonyl)phenyl)urea] | 70 to 89% | > 89% | < 70% | 1000 to 5000 nM | < 2000 nM | – | – |
| O=C(Nc1cccc(C(F)(F)F)c1)Nc1ccc(F)c(C(=O)c2ccc3ncc(N4CCOCC4)nc3c2)c1 [Compound C036, 1-(4-fluoro-3-(3-morpholinoquinoxaline-6-carbonyl)phenyl)-3-(3-(trifluoromethyl)phenyl)urea] | < 70% | 70 to 89% | > 89% | < 1000 nM | < 2000 nM | < 100 nM | < 100 nM |
| O=C(Nc1cccc(C(F)(F)F)c1)Nc1cc(F)c(F)c(C(=O)c2ccc3nccnc3c2)c1F [Compound C006, 1-(2,4,5-trifluoro-3-(quinoxaline-6-carbonyl)phenyl)-3-(3-(trifluoromethyl)phenyl)urea] | < 70% | 70 to 89% | < 70% | > 5000 nM | > 5000 nM | – | – |
| O=C(Nc1cccc(C(=O)c2ccc3ncc(-c4cccnc4)nc3c2)c1)c1ccc(C(F)(F)F)c(Cl)c1 [Compound C124, 3-chloro-N-(3-(3-(pyridin-3-yl)quinoxaline-6-carbonyl)phenyl)-4-(trifluoromethyl)benzamide] | < 70% | > 89% | > 89% | > 5000 nM | > 5000 nM | < 100 nM | < 100 nM |
| O=C(Nc1ccc(F)cc1)Nc1ccc(F)c(C(=O)c2ccc3ncc(N4CCNCC4)nc3c2)c1 [Compound C100, 1-(4-fluoro-3-(3-(piperazin-1-yl)quinoxaline-6-carbonyl)phenyl)-3-(4-fluorophenyl)urea] | > 89% | > 89% | > 89% | – | 2000 to 5000 nM | < 100 nM | – |

Reference: patent publication US10759766B2, “Certain chemical entities, compositions, and methods” (NeuPharma, Inc., priority 2011, dated 2020)
